Among the test systems are CAKI-1; CCRF-CEM; COLO 205; EKVX; HCT-116; IGROV-1; K562; KM12; M14; NCI-H522; NCI/ADR-RES; OVCAR-4; OVCAR-5; PC-3; SK-MEL-28; SK-MEL-2; SN12C; SW-620; T47D.
Holding throughout (assay): NCI tumour cell line growth inhibition, 48 h

SMILES strings stand for the structures.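 Growth conditions: 96-well plates. Treatment: test compound, 48 hours, 5 concentrations. Analysis: linear interpolation between bracketing concentrations; unreached endpoints set to highest concentration. GI50 is the concentration that inhibits growth by half.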 The source made the active and inactive calls. Cut-off read from the data, not from the text of the source: active = GI50 up to about 1.1 µM and inactive = higher.

For the molecule `CC(C)(C)c1cc(C(=O)/C=C/C=C/c2ccccc2)cc(C(C)(C)C)c1O`, the GI50 was 29 µM (inactive) in the experiment on CAKI-1; 3.15 µM (inactive) in the experiment on CCRF-CEM; 16.6 µM (inactive) in the experiment with COLO 205; 25.4 µM (inactive) in the experiment with EKVX; 18.2 µM (inactive) with HCT-116; 33.3 µM (inactive) with IGROV-1. Moreover, the GI50 was 7.31 µM (inactive) with K562; > 28.2 µM (inactive) in the experiment with KM12; 17.2 µM (inactive) in the experiment on M14; 10.3 µM (inactive) with NCI-H522; 8.73 µM (inactive) in the experiment on NCI/ADR-RES; > 51.5 µM (inactive) in the experiment on OVCAR-4. In addition, the GI50 in the experiment with OVCAR-5 is 36.7 µM (inactive); with PC-3 it was 14.7 µM (inactive); in the experiment on SK-MEL-28, 30.5 µM (inactive); in the experiment with SK-MEL-2 it was 11.7 µM (inactive); in the experiment on SN12C it was 27.4 µM (inactive); with SW-620, 11.5 µM (inactive). The GI50 with T47D is 28.9 µM (inactive).
In the case of `COC(=O)/C=C/c1ccccc1N=[S@](C)(=O)c1ccc(C)cc1`, the GI50 in the experiment with CAKI-1 is 15 µM (inactive); with CCRF-CEM, 11.5 µM (inactive); in the experiment on COLO 205, 8.34 µM (inactive); with EKVX it was 37.4 µM (inactive); in the experiment on HCT-116, 15.3 µM (inactive); with IGROV-1 it was 18 µM (inactive). Besides, the GI50 is 4.09 µM (inactive) in the experiment with K562; 8.53 µM (inactive) in the experiment with KM12; 12.6 µM (inactive) with M14; 2.86 µM (inactive) in the experiment on NCI-H522; 7.13 µM (inactive) in the experiment on NCI/ADR-RES; 26.1 µM (inactive) in the experiment with OVCAR-4. Moreover, the GI50 was 36.1 µM (inactive) in the experiment with OVCAR-5; 13.4 µM (inactive) in the experiment with PC-3; 16.4 µM (inactive) with SK-MEL-28; 21.8 µM (inactive) in the experiment on SK-MEL-2; 34.9 µM (inactive) in the experiment on SN12C; 8.89 µM (inactive) in the experiment on SW-620. Also, in the experiment on T47D, the GI50 is 31.8 µM (inactive).
As to `C/C(=N\NC(=S)N1CC2CCC(CC2)C1)c1cccc(C)n1`, the GI50 in the experiment on CAKI-1 was 1.11 µM (active); with CCRF-CEM it was 0.01 µM (active); in the experiment on COLO 205 it was 0.01 µM (active); in the experiment with EKVX, 0.488 µM (active); in the experiment on HCT-116, < 0.0445 µM (active); in the experiment with IGROV-1, 0.815 µM (active). The GI50 was < 0.0112 µM (active) in the experiment on K562; 0.422 µM (active) in the experiment with KM12; 0.269 µM (active) in the experiment with M14; 0.00432 µM (active) with NCI-H522; 0.01 µM (active) in the experiment on NCI/ADR-RES; 0.352 µM (active) in the experiment on OVCAR-4. Also, the GI50 was 1.46 µM (inactive) in the experiment on OVCAR-5; 0.01 µM (active) in the experiment with PC-3; 2.94 µM (inactive) in the experiment with SK-MEL-28; 4.7 µM (inactive) with SK-MEL-2; 0.566 µM (active) with SN12C; 0.148 µM (active) in the experiment on SW-620. Besides, the GI50 in the experiment on T47D is 0.01 µM (active).
For `COC(=O)C1=C(OC(=O)/C=C/c2ccc(Cl)cc2)C(C(=O)OC)[C@]2(O)[C@@H](C(=O)OC)[C@H]1C[C@@H](c1ccccc1)[C@@H]2C(=O)OC` (stereo not given in full), the GI50 in the experiment with CAKI-1 is 11.1 µM (inactive); with CCRF-CEM it was 3.31 µM (inactive); in the experiment on COLO 205 it was 4.43 µM (inactive); with EKVX, 3.85 µM (inactive); in the experiment on HCT-116, 3.53 µM (inactive); in the experiment on IGROV-1, 3.18 µM (inactive). Besides, the GI50 is 4.54 µM (inactive) in the experiment with K562; 4.89 µM (inactive) in the experiment with KM12; 6.1 µM (inactive) in the experiment with M14; 2.34 µM (inactive) in the experiment with NCI-H522; 3.52 µM (inactive) in the experiment on NCI/ADR-RES; 5.19 µM (inactive) in the experiment on OVCAR-4. Besides, the GI50 with OVCAR-5 was 17.7 µM (inactive); in the experiment on PC-3, 5.65 µM (inactive); in the experiment on SK-MEL-28, 17.3 µM (inactive); in the experiment on SK-MEL-2 it was 6.27 µM (inactive); in the experiment with SN12C, 7.36 µM (inactive); in the experiment with SW-620 it was 3.97 µM (inactive). Further, the GI50 in the experiment with T47D is 5.87 µM (inactive).
For the molecule `CCOC(=O)Cc1csc(NC(NC(=O)OCC)(C(=O)OCC)C(F)(F)F)n1` (stereo not given), the GI50 in the experiment with CAKI-1, with CCRF-CEM, in the experiment with COLO 205, in the experiment on EKVX, in the experiment on HCT-116 and with IGROV-1 was > 100 µM (inactive) throughout. Also, the GI50 in the experiment with K562 is > 100 µM (inactive); in the experiment on KM12 it was > 100 µM (inactive); with M14, > 100 µM (inactive); in the experiment on NCI-H522, 16.9 µM (inactive); in the experiment on NCI/ADR-RES it was > 100 µM (inactive); in the experiment with OVCAR-4, > 100 µM (inactive). For the same molecule, the GI50 in the experiment on OVCAR-5, in the experiment with PC-3, in the experiment with SK-MEL-28, with SK-MEL-2, in the experiment on SN12C and in the experiment on SW-620 was > 100 µM (inactive) each time. Further, the GI50 in the experiment with T47D was > 100 µM (inactive).
Consider `O=C1C2CCN(CC2)C1(CO)CO`, for which the GI50 with CAKI-1 is 19.2 µM (inactive); in the experiment on CCRF-CEM it was 5.06 µM (inactive); in the experiment on COLO 205, 18.7 µM (inactive); in the experiment with EKVX, 49.7 µM (inactive); in the experiment with HCT-116, 17 µM (inactive); in the experiment with IGROV-1, > 89.5 µM (inactive). In addition, the GI50 was 23.6 µM (inactive) with K562; 64.7 µM (inactive) in the experiment with KM12; 18.3 µM (inactive) in the experiment with M14; 13.1 µM (inactive) in the experiment on NCI-H522; 24.5 µM (inactive) in the experiment on NCI/ADR-RES; 19.4 µM (inactive) in the experiment on OVCAR-4. Further, the GI50 with OVCAR-5 was 26 µM (inactive); in the experiment on PC-3, > 79.1 µM (inactive); in the experiment on SK-MEL-28, 26.4 µM (inactive); with SK-MEL-2, 71.8 µM (inactive); with SN12C, 17.6 µM (inactive); with SW-620, 18.2 µM (inactive). In addition, the GI50 in the experiment on T47D was 19.5 µM (inactive).
With `CCOP(=O)(OCC)C(Cc1cn(S(=O)(=O)c2ccc(C)cc2)cn1)C(=O)O` (stereo not given), the GI50 with CAKI-1, in the experiment on CCRF-CEM, with COLO 205, in the experiment with EKVX, in the experiment on HCT-116 and in the experiment on IGROV-1 was > 100 µM (inactive) throughout. In addition, the GI50 in the experiment on K562, in the experiment on KM12, in the experiment with M14, in the experiment on NCI-H522, with NCI/ADR-RES and in the experiment with OVCAR-4 was > 100 µM (inactive) in each case. In addition, the GI50 in the experiment on OVCAR-5, with PC-3, in the experiment on SK-MEL-28, in the experiment with SK-MEL-2, with SN12C and in the experiment on SW-620 was > 100 µM (inactive) throughout. Moreover, the GI50 with T47D is > 100 µM (inactive).
`CN(C)Cc1cc(C(=O)O)cc(CN(C)C)c1O`: the GI50 with CAKI-1, with CCRF-CEM, in the experiment on COLO 205, in the experiment with EKVX, with HCT-116 and with IGROV-1 was > 100 µM (inactive) throughout. For the same molecule, the GI50 in the experiment with K562, in the experiment on KM12, in the experiment with M14, in the experiment with NCI-H522, in the experiment with NCI/ADR-RES and with OVCAR-4 was > 100 µM (inactive) throughout. Also, the GI50 in the experiment on OVCAR-5, with PC-3, with SK-MEL-28, in the experiment on SK-MEL-2, in the experiment on SN12C and in the experiment on SW-620 was > 100 µM (inactive) throughout. Moreover, the GI50 with T47D was > 100 µM (inactive).
Turning to `C=C(C)c1cc(C(C)(C)C)cc(C(=C)C)c1S(C)(=O)=O`, the GI50 in the experiment with CAKI-1 was > 100 µM (inactive); with CCRF-CEM, > 100 µM (inactive); in the experiment with COLO 205 it was 0.596 µM (active); in the experiment on EKVX, > 100 µM (inactive); in the experiment with HCT-116, > 100 µM (inactive); with IGROV-1, > 100 µM (inactive). The GI50 in the experiment with K562, with KM12, in the experiment with M14, with NCI-H522, in the experiment with NCI/ADR-RES and in the experiment with OVCAR-4 was > 100 µM (inactive) each time. Moreover, the GI50 with OVCAR-5, in the experiment with PC-3, in the experiment with SK-MEL-28, with SK-MEL-2, with SN12C and in the experiment with SW-620 was > 100 µM (inactive) throughout. The GI50 in the experiment with T47D was 10.7 µM (inactive).
Take `CCc1[nH]c(=O)nc(N)c1-c1ccc(N2CCCCC2)c([N+](=O)[O-])c1`: the GI50 with CAKI-1, with CCRF-CEM, in the experiment with COLO 205, with EKVX, in the experiment with HCT-116 and in the experiment on IGROV-1 was > 100 µM (inactive) in each case. Moreover, the GI50 with K562, in the experiment on KM12, with M14, in the experiment with NCI-H522, with NCI/ADR-RES and with OVCAR-4 was > 100 µM (inactive) each time. Besides, the GI50 with OVCAR-5, in the experiment on PC-3, in the experiment with SK-MEL-28, in the experiment on SK-MEL-2, in the experiment with SN12C and in the experiment with SW-620 was > 100 µM (inactive) in each case. Besides, the GI50 in the experiment on T47D is > 100 µM (inactive).

The values above are taken from ChEMBL document CHEMBL1201862, “PubChem BioAssay data set” (2004).
